Source: patent US20220000807A1, “METHODS AND APPARATUS FOR TREATING A WOUND” (Chang Gung Memorial Hospital, Linkou, priority 2018, published 2022)

Experiments:
back incisions of rats = assay: In vivo rat back incision wound healing study; settings: for microscopic changes of the 1 cm×1 cm back wound: Day 10, 10 days of drops twice a day (0.25% betaxolol, 0.5% Timoptol), FIG. 4A-4C
Procedure: An in vivo study was performed to examine the effectiveness of a non-selective β blocker and a β1-blocker using rats. The rats were divided into 3 groups: (a) control (n=2); (b) non-selective […] blocker (n=1); and (c) β1-blocker (n=1). On Day 0 of the experiment, 3 back incisions were made on each rat. The size of the back incisions are 1.5 cm×1.5 cm, 1 cm×1 cm and 0.5 cm×0.5 cm for the top, middle and bottom incisions as shown on FIG. 4A.
The rats in the control group received no treatment, the rat in the non-selective β blocker group received 0.5% Timoptol drop (MSD, USA) twice a day (30 μl for the top incision, 13 μl for the middle incision and 3.3 μl for the bottom incision) and the rat in the β1-blocker group received 0.25% Betoptic drop (Alcon Laboratories, USA) twice a day (30 μl for the top incision, 13 μl for the middle incision and 3.3 μl for the bottom incision).

[1] = test system: severe, relapsing paronychia and pyogenic granuloma-like lesion on left thumb (induced by afatinib); assay: Topical treatment of a patient with afatinib-induced paronychia and pyogenic granuloma-like lesion; type: in vivo, human; settings: one patient; for improvement of paronychia and pyogenic granuloma-like lesion with previous topical treatment: previous treatment with all three agents, FIG. 1A
Source text: They were subsequently treated with topical 0.25% betaxolol drops once daily (Alcon Laboratories, USA) for 4 weeks under occlusion.

[2] = test system: deep fissure over palms or soles induced by EGFR inhibitors; settings: 10 patients; topical 0.25% drops once a day; FIG. 2A, 2B
Procedure: 10 patients with deep fissure over palms or soles induced by EGFR inhibitors were treated with topical 0.25% betaxolol drops (Alcon Laboratories, USA) once a day.

Compound	microscopic changes of the 1 cm×1 cm back wound (back incisions of rats)	improvement of paronychia and pyogenic granuloma-like lesion with previous topical treatment [1]	other results
CC(C)(C)NC[C@H](O)COc1nsnc1N1CCOCC1.O=C(O)/C=C\C(=O)O [Timoptol]	incompletely healing, characterized with incomplete re-epithelization of the epidermis, less fibroblast activity and evidence of debri		
CCCCC(=O)O[C@]1(C(=O)CO)[C@@H](C)C[C@H]2[C@@H]3CCC4=CC(=O)C=C[C@]4(C)[C@@]3(F)[C@@H](O)C[C@@]21C [betamethasone valerate]		without any improvement	
CC(C)NCC(O)COc1ccc(CCOCC2CC2)cc1 (centres unmarked) [betaxolol]	almost completely healed with re-growth of fibroblasts, complete re-epithelization of epidermis, and no evidence of debri		resolution of paronychia and pyogenic granuloma-like lesion ([1]; topical 0.25% drops once daily for 4 weeks under occlusion, FIG. 1B): complete resolution of paronychia and pyogenic granuloma-like lesion; deep fissure wound healing [2]: healed within one week of treatment in all of the 10 patients; appearance of back incisions (erythema, size) (back incisions of rats; 0.25% drop twice a day, after 7 days of treatment, compared to 0.5% Timoptol drops and no treatment, FIG. 3C-3E): less erythematous and smaller in size
O=[N+]([O-])[O-].[Ag+] [silver nitrate]		without any improvement	
gentamicin sulfate		without any improvement	
